Data: PubChem BioAssay AID2060356 (Molecular Pharmacology Branch, DTP, NCI, 2025)

Tested on: PDC tumor spheroids with HUVEC/MSC, viability
Assay: Anticancer human tumor 439559-082-T-J2-PDC patient-derived colon adenocarcinoma cell line growth inhibition [TAK]
Conditions: for viability, T/C: stronger effect = lower value
Source text: Combinatorial screen of targeted agents with TAK-243 and ipatasertib in multi-cell type tumor spheroids
A high-throughput screen of multi-cell type tumor spheroids was designed to identify active combinations of targeted small molecules and TAK-243 or ipatasertib. Complex spheroids include a stromal component modeled by human endothelial cells (HUVEC) and fibroblasts modeled by human mesenchymal stem cells (MSCs). The concentration ranges selected for each drug and investigational agent were based upon clinically achievable concentrations if the clinical Cmax of the agent was known.
Compounds. The drugs and investigational agents: TAK-243 (785004), ipatasertib (767898), everolimus (733504), selumetinib (741078), bortezomib (756655), trametinib (758246), ixazomib (758254), vemurafenib (761431), dabrafenib (764134), sapanisertib (764658), alpelisib (765974), and copanlisib (816437), were obtained from the National Cancer Institute (NCI) Developmental Therapeutics Program Chemical Repository. The FDA-approved anticancer drug set is available from the NCI Developmental Therapeutics Program. […] The stock solutions were prepared in dimethyl sulfoxide (DMSO, Sigma-Aldrich, St. Louis, MO, cat. D2650) at 800-fold the tested concentration and stored at -70 degrees C prior to their use. All drugs and investigational agents were tested over a range starting from a high concentration at or near the clinical Cmax and decreasing in half-log increments. If the clinical Cmax for an agent had not been determined, the highest concentration tested was 10 microM.
NCI60 Cell Culture. NCI60 cell lines were obtained from the NCI Developmental Therapeutics Program Tumor Repository. For each lot of cells, the Repository performed Applied Biosystems AmpFLSTR Identifiler testing with PCR amplification to confirm consistency with the published Identifier STR profile for each cell line. Cells were kept in continuous culture for no more than 20 passages. The optimal seeding densities for each of the cell lines at each time point assessed were determined prior to performing the concentration response studies. Briefly, the NCI60 human tumor lines were grown as monolayers in RPMI 1640 medium supplemented with 10% FBS and 2 mmol/L L-glutamine.
An additional 2 lines were from the NCI60 cell line panel including melanomas, MALME-3M and SK-MEL-2. Pooled donor human umbilical vein endothelial cells (HUVEC, Lonza, cat. CC-2519) and human mesenchymal stem cells (hMSC, Lonza, cat. PT-2501) were purchased from Lonza (Walkersville, MD).
PDMR cell lines were grown in complete medium (DC medium): Dulbecco's modified Eagle's medium (DMEM)/F12 supplemented with 5% fetal bovine serum (FBS), 2 mM L-glutamine, 100 U/mL penicillin and 100 µg/ml streptomycin, 0.4 µg/ml hydrocortisone, 10 ng/ml epidermal growth factor (EGF) recombinant human protein, 24 µg/mL adenine, and 0.1 mg/mL primocin. During culture from frozen stock vials, PDMR cells were cultured in the same medium containing 10 µM Y-27632 (see Table 3). The PDCs were cultured in complete DMEM/F12 media without 10 microM Y-27632 dihydrochloride for at least two passages prior to the screen. The pooled donor HUVEC and hMSC were cultured in endothelial cell growth medium 2 (PromoCell, Heidelberg, Germany, cat. C-22011) and mesenchymal stem cell growth medium 2 (PromoCell, cat. C-28009), respectively. For all experiments, HUVEC and hMSC were used at passages </=5.
For the pre-screen, cell seeding densities were determined from a titration spanning the range from 5,000 to 313 cells per well. The mct-spheroids including 60% malignant cells, 25% HUVEC and 15% MSC dispensed as a mixture into U-bottom Ultra-Low Attachment 384-well plates (Corning, NY)
High-throughput Drug Combination Screening.
Prior to their inoculation into 384-well plates, malignant cells, HUVEC, and hMSC were removed from T flasks using TrypLE express (Thermo Fisher Scientific, cat. 12605036) and harvested by centrifugation for 5 min at 233 x g. […]

[1] = curve of first compound, second compound 0.3 µM
[2] = curve of first compound, second compound 0.949 µM
[3] = curve of first compound, second compound 3 µM
[4] = curve of first compound, second compound 9.49 µM
[5] = curve of first compound, second compound 30 µM
[6] = second compound 0.3 µM, first compound 0.316 µM
[7] = second compound 0.3 µM, first compound 1 µM
[8] = second compound 0.3 µM, first compound 3.16 µM
[9] = second compound 0.3 µM, first compound 10 µM
[10] = second compound 0.949 µM, first compound 0.316 µM
[11] = second compound 0.949 µM, first compound 1 µM
[12] = second compound 0.949 µM, first compound 3.16 µM
[13] = second compound 0.949 µM, first compound 10 µM
[14] = second compound 3 µM, first compound 0.316 µM
[15] = second compound 3 µM, first compound 1 µM
[16] = second compound 3 µM, first compound 3.16 µM
[17] = second compound 3 µM, first compound 10 µM
[18] = second compound 9.49 µM, first compound 0.316 µM
[19] = second compound 9.49 µM, first compound 1 µM
[20] = second compound 9.49 µM, first compound 3.16 µM
[21] = second compound 9.49 µM, first compound 10 µM
[22] = second compound 30 µM, first compound 0.316 µM
[23] = second compound 30 µM, first compound 1 µM
[24] = second compound 30 µM, first compound 3.16 µM
[25] = second compound 30 µM, first compound 10 µM
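Note: spheroids exposed to drugs for seven days before readout.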

Cn1cnc2c(F)c(Nc3ccc(Br)cc3Cl)c(C(=O)NOCCO)cc21 + CC(C)NCC(C(=O)N1CCN(c2ncnc3c2C(C)CC3O)CC1)c1ccc(Cl)cc1
IC50 [1]: > 3 µM | IC50 [2]: > 3 µM | IC50 [3]: > 3 µM | IC50 [4]: > 3 µM | IC50 [5]: > 3 µM | viability, T/C (second compound 0.3 µM, first compound 0.00949 µM): 92.4% | viability, T/C (second compound 0.3 µM, first compound 0.03 µM): 82.1% | viability, T/C (second compound 0.3 µM, first compound 0.0949 µM): 80.9% | viability, T/C (second compound 0.3 µM, first compound 0.3 µM): 76.3% | viability, T/C (second compound 0.3 µM, first compound 0.949 µM): 68.9% | viability, T/C (second compound 0.3 µM, first compound 3 µM): 65.7% | viability, T/C (second compound 0.949 µM, first compound 0.00949 µM): 104% | viability, T/C (second compound 0.949 µM, first compound 0.03 µM): 97.4% | viability, T/C (second compound 0.949 µM, first compound 0.0949 µM): 81% | viability, T/C (second compound 0.949 µM, first compound 0.3 µM): 77.2% | viability, T/C (second compound 0.949 µM, first compound 0.949 µM): 67.9% | viability, T/C (second compound 0.949 µM, first compound 3 µM): 69.4% | viability, T/C (second compound 3 µM, first compound 0.00949 µM): 102% | viability, T/C (second compound 3 µM, first compound 0.03 µM): 99.8% | viability, T/C (second compound 3 µM, first compound 0.0949 µM): 80.2% | viability, T/C (second compound 3 µM, first compound 0.3 µM): 68.2% | viability, T/C (second compound 3 µM, first compound 0.949 µM): 72% | viability, T/C (second compound 3 µM, first compound 3 µM): 63.3% | viability, T/C (second compound 9.49 µM, first compound 0.00949 µM): 99.2% | viability, T/C (second compound 9.49 µM, first compound 0.03 µM): 91.7% | viability, T/C (second compound 9.49 µM, first compound 0.0949 µM): 83.9% | viability, T/C (second compound 9.49 µM, first compound 0.3 µM): 72% | viability, T/C (second compound 9.49 µM, first compound 0.949 µM): 70.5% | viability, T/C (second compound 9.49 µM, first compound 3 µM): 64.7% | viability, T/C (second compound 30 µM, first compound 0.00949 µM): 93.6% | viability, T/C (second compound 30 µM, first compound 0.03 µM): 89.7% | viability, T/C (second compound 30 µM, first compound 0.0949 µM): 85.4% | viability, T/C (second compound 30 µM, first compound 0.3 µM): 75.2% | viability, T/C (second compound 30 µM, first compound 0.949 µM): 69.5% | viability, T/C (second compound 30 µM, first compound 3 µM): 66.3%

CC(C)NCC(C(=O)N1CCN(c2ncnc3c2C(C)CC3O)CC1)c1ccc(Cl)cc1 (stereo unspecified)
viability, T/C (compound 0.3 µM): 101% [middle of 10 runs] | viability, T/C (compound 0.949 µM): 94% [middle of 10 runs] | viability, T/C (compound 3 µM): 83.6% [middle of 10 runs] | viability, T/C (compound 9.49 µM): 80.9% [middle of 10 runs] | viability, T/C (compound 30 µM): 85.8% [middle of 10 runs] | IC50 (compound alone, run of 02/28/2020): > 30 µM

Cc1nc(NC(=O)N2CCCC2C(N)=O)sc1-c1ccnc(C(C)(C)C(F)(F)F)c1 (stereo unspecified) + CC(C)NCC(C(=O)N1CCN(c2ncnc3c2C(C)CC3O)CC1)c1ccc(Cl)cc1
IC50 [1]: > 10 µM | IC50 [2]: > 10 µM | IC50 [3]: > 10 µM | IC50 [4]: > 10 µM | IC50 [5]: > 10 µM | viability, T/C (second compound 0.3 µM, first compound 0.0316 µM): 106% | viability, T/C (second compound 0.3 µM, first compound 0.1 µM): 98.8% | viability, T/C [6]: 85% | viability, T/C [7]: 86.8% | viability, T/C [8]: 80.9% | viability, T/C [9]: 69.6% | viability, T/C (second compound 0.949 µM, first compound 0.0316 µM): 109% | viability, T/C (second compound 0.949 µM, first compound 0.1 µM): 102% | viability, T/C [10]: 86.3% | viability, T/C [11]: 85.8% | viability, T/C [12]: 80.1% | viability, T/C [13]: 70% | viability, T/C (second compound 3 µM, first compound 0.0316 µM): 98.8% | viability, T/C (second compound 3 µM, first compound 0.1 µM): 102% | viability, T/C [14]: 85.5% | viability, T/C [15]: 85.6% | viability, T/C [16]: 78.5% | viability, T/C [17]: 82.3% | viability, T/C (second compound 9.49 µM, first compound 0.0316 µM): 95.8% | viability, T/C (second compound 9.49 µM, first compound 0.1 µM): 91.4% | viability, T/C [18]: 85% | viability, T/C [19]: 83.1% | viability, T/C [20]: 75.7% | viability, T/C [21]: 74.2% | viability, T/C (second compound 30 µM, first compound 0.0316 µM): 86.4% | viability, T/C (second compound 30 µM, first compound 0.1 µM): 91.7% | viability, T/C [22]: 84.9% | viability, T/C [23]: 79% | viability, T/C [24]: 81.3% | viability, T/C [25]: 71.5%

CCCS(=O)(=O)Nc1ccc(F)c(C(=O)c2c[nH]c3ncc(-c4ccc(Cl)cc4)cc23)c1F + CC(C)NCC(C(=O)N1CCN(c2ncnc3c2C(C)CC3O)CC1)c1ccc(Cl)cc1
IC50 [1]: > 100 µM | IC50 [2]: > 100 µM | IC50 [3]: > 100 µM | IC50 [4]: > 100 µM | IC50 [5]: 24.8 µM | viability, T/C [6]: 117% | viability, T/C [7]: 103% | viability, T/C [8]: 100% | viability, T/C [9]: 91.5% | viability, T/C (second compound 0.3 µM, first compound 31.6 µM): 93.4% | viability, T/C (second compound 0.3 µM, first compound 100 µM): 106% | viability, T/C [10]: 122% | viability, T/C [11]: 99.1% | viability, T/C [12]: 94.6% | viability, T/C [13]: 86.2% | viability, T/C (second compound 0.949 µM, first compound 31.6 µM): 21.8% | viability, T/C (second compound 0.949 µM, first compound 100 µM): 100% | viability, T/C [14]: 108% | viability, T/C [15]: 107% | viability, T/C [16]: 88.3% | viability, T/C [17]: 76% | viability, T/C (second compound 3 µM, first compound 31.6 µM): 51.6% | viability, T/C (second compound 3 µM, first compound 100 µM): 94.6% | viability, T/C [18]: 96.6% | viability, T/C [19]: 101% | viability, T/C [20]: 80.1% | viability, T/C [21]: 72.5% | viability, T/C (second compound 9.49 µM, first compound 31.6 µM): 8.73% | viability, T/C (second compound 9.49 µM, first compound 100 µM): 88.5% | viability, T/C [22]: 87.9% | viability, T/C [23]: 94.6% | viability, T/C [24]: 84.8% | viability, T/C [25]: 71.7% | viability, T/C (second compound 30 µM, first compound 31.6 µM): 1.55% | viability, T/C (second compound 30 µM, first compound 100 µM): 86.9%
